We go through 33 compounds from patent publication US8026252B2 (priority 2005, dated 2011).

One experiment deals with T1, human μ opioid receptor (Homo sapiens, UniProt P35372).
T1 construct: expressed in transfected cells
Briefly: biochemical. Type of experiment: binding.

In another experiment the test system is κ opioid receptors. The conditions noted are these: background, U.S. Pat. No. 6,784,187; cited from earlier work.
The test system of the next experiment is guinea pig μ receptors. The conditions noted are these: background, U.S. Pat. No. 6,784,187; cited from earlier work.
A further experiment relates to mice. The conditions noted are these: cited from earlier work; for duration of action: 1 mg/kg ip in mice.

Like-named read-outs stand apart in the source and are kept apart here.

T1 sequence (P35372 whole entry): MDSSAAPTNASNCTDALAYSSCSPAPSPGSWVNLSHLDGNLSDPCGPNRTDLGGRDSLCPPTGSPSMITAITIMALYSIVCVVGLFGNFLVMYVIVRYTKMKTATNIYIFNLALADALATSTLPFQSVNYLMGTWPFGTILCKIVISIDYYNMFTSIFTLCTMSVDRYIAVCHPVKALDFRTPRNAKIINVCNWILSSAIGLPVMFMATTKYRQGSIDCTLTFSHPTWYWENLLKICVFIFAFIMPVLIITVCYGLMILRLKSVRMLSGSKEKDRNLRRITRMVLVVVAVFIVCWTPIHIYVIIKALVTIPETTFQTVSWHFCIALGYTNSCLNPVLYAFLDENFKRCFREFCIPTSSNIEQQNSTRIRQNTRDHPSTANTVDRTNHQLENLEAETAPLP

Take `CC[C@@]12CCN(CC3CC3)C(C(=O)c3ccc(C(=O)NCCc4ccc(-c5ccccc5)cc4)cc31)[C@@H]2C` (mixture of isomers) [Example 21, (±)-3-(Cyclopropylmethyl)-6-ethyl-1,2,3,4,5,6-hexaahydro-cis-11-methyl-N-(2-[1,1′-biphenyl]-4-ylethyl)-1-oxo-2,6-methano-3-benzazocine-8-carboxamide]: on human μ opioid receptor ([3H]DAMGO (μ)), the Ki worked out at 4.9 ± 0.2 nM.
As to `CC1[C@@H]2Cc3ccc(C(=O)NCCc4ccccc4)cc3[C@@]1(C)CCN2CC1CC1` (mixture of isomers) [Example 11, (±)-3-(Cyclopropylmethyl)-1,2,3,4,5,6-hexahydro-cis-6,11-dimethyl-N-(2-phenylethyl)-2,6-methano-3-benzazocine-8-carboxamide], the Ki at human μ opioid receptor (read-out: [3H]DAMGO (μ)) came out at 3.5 ± 0.27 nM.
In the case of `CC1[C@@H]2Cc3ccc(C(=O)NCCCc4ccccc4)cc3[C@@]1(C)CCN2CC1CC1` (mixture of isomers) [Example 12, (±)-3-(Cyclopropylmethyl)-1,2,3,4,5,6-hexahydro-cis-6,11-dimethyl-N-(3-phenylpropyl)-2,6-methano-3-benzazocine-8-carboxamide], the Ki at human μ opioid receptor (read-out: [3H]DAMGO (μ)) came to 2.5 ± 0.27 nM.
As to `CC1[C@@H]2Cc3ccc(C(=O)NCCc4cccc(-c5ccccc5)c4)cc3[C@@]1(C)CCN2CC1CC1` (mixture of isomers) [Example 25, (±)-3-(Cyclopropylmethyl)-1,2,3,4,5,6-hexahydro-cis-6,11-dimethyl-N-(2-(biphenyl-3-yl)ethyl)-2,6-methano-3-benzazocine-8-carboxamide], on human μ opioid receptor (read-out: [3H]DAMGO (μ)), the Ki was found to be 0.95 ± 0.15 nM.
Same read-out and setting: as for `CC1[C@@H]2Cc3ccc(C(=O)NCCc4ccccc4-c4ccccc4)cc3[C@@]1(C)CCN2CC1CC1` (mixture of isomers) [Example 26, (±)-3-(Cyclopropylmethyl)-1,2,3,4,5,6-hexahydro-cis-6,11-dimethyl-N-(2-(biphenyl-2-yl)ethyl)-2,6-methano-3-benzazocine-8-carboxamide], the figure is 6.7 ± 0.49 nM.
The same measure, in the same setting: as for `CC1[C@@H]2Cc3ccc(C(=O)NCCc4ccc(Cc5ccccc5)cc4)cc3[C@@]1(C)CCN2CC1CC1` (mixture of isomers) [Example 27, (±)-3-(Cyclopropylmethyl)-1,2,3,4,5,6-hexahydro-cis-6,11-dimethyl-N-(4-benzylphenethyl)-2,6-methano-3-benzazocine-8-carboxamide], the figure is 0.23 ± 0.032 nM.
Take `CC1[C@@H]2Cc3ccc(C(=O)NCCc4ccc(Br)cc4)cc3[C@@]1(C)CCN2CC1CC1` (mixture of isomers) [Example 29, (±)-3-(Cyclopropylmethyl)-1,2,3,4,5,6-hexahydro-cis-6,11-dimethyl-N-(4-bromophenethyl)-2,6-methano-3-benzazocine-8-carboxamide]: the Ki on human μ opioid receptor (read-out: [3H]DAMGO (μ)) amounted to 2.4 ± 0.33 nM.
The same measure, in the same setting: as for `CC1[C@@H]2Cc3ccc(C(=O)NCCc4cccc(Br)c4)cc3[C@@]1(C)CCN2CC1CC1` (mixture of isomers) [Example 30, (±)-3-(Cyclopropylmethyl)-1,2,3,4,5,6-hexahydro-cis-6,11-dimethyl-N-(3-bromophenethyl)-2,6-methano-3-benzazocine-8-carboxamide], the figure is 0.35 ± 0.021 nM; as for `CC1[C@@H]2Cc3ccc(C(=O)NCCc4ccc(Oc5ccccc5)cc4)cc3[C@@]1(C)CCN2CC1CC1` (mixture of isomers) [Example 33, (±)-3-(Cyclopropylmethyl)-1,2,3,4,5,6-hexahydro-cis-6,11-dimethyl-N-(4-phenoxyphenethyl)-2,6-methano-3-benzazocine-8-carboxamide], 0.059 ± 0.017 nM.
With `CC1[C@@H]2Cc3ccc(C(=O)NCCc4cccc(Oc5ccccc5)c4)cc3[C@@]1(C)CCN2CC1CC1` (mixture of isomers) [Example 34, (±)-3-(Cyclopropylmethyl)-1,2,3,4,5,6-hexahydro-cis-6,11-dimethyl-N-(3-phenoxyphenethyl)-2,6-methano-3-benzazocine-8-carboxamide], the Ki on human μ opioid receptor (read-out: [3H]DAMGO (μ)) is 0.54 ± 0.16 nM.
The same measure, in the same setting: as for `CC1[C@@H]2Cc3ccc(C(=O)NCCc4ccccc4Oc4ccccc4)cc3[C@@]1(C)CCN2CC1CC1` (mixture of isomers) [Example 35, (±)-3-(Cyclopropylmethyl)-1,2,3,4,5,6-hexahydro-cis-6,11-dimethyl-N-(2-phenoxyphenethyl)-2,6-methano-3-benzazocine-8-carboxamide], the figure is 0.63 ± 0.09 nM; as for `CC1[C@@H]2Cc3ccc(C(=O)NCCc4ccc5ccccc5c4)cc3[C@@]1(C)CCN2CC1CC1` (mixture of isomers) [Example 37, (±)-3-(Cyclopropylmethyl)-1,2,3,4,5,6-hexahydro-cis-6,11-dimethyl-N-(2-(naphthalen-2-yl)ethyl)-2,6-methano-3-benzazocine-8-carboxamide], 0.18 ± 0.009 nM.
As for `CC1[C@@H]2Cc3ccc(C(=O)NCCCc4ccc5ccccc5c4)cc3[C@@]1(C)CCN2CC1CC1` (mixture of isomers) [Example 38, (±)-3-(Cyclopropylmethyl)-1,2,3,4,5,6-hexahydro-cis-6,11-dimethyl-N-(3-(naphthalen-2-yl)propyl)-2,6-methano-3-benzazocine-8-carboxamide], at human μ opioid receptor (read-out: [3H]DAMGO (μ)), the Ki was determined as 1.9 ± 0.19 nM.
The same measure, in the same setting: as for `CC1[C@@H]2Cc3ccc(C(=O)NCCc4cccc5ccccc45)cc3[C@@]1(C)CCN2CC1CC1` (mixture of isomers) [Example 40, (±)-3-(Cyclopropylmethyl)-1,2,3,4,5,6-hexahydro-cis-6,11-dimethyl-N-(2-(naphthalen-1-yl)ethyl)-2,6-methano-3-benzazocine-8-carboxamide], the figure is 4.2 ± 0.13 nM; as for `CC1[C@@H]2Cc3ccc(C(=O)NCCCc4ccc5ccccc5c4)cc3[C@@]1(C)CCN2CC1CC1` (mixture of isomers) [Example 41, (±)-3-(Cyclopropylmethyl)-1,2,3,4,5,6-hexahydro-cis-6,11-dimethyl-N-(3-(naphthalen-2-yl)propyl)-2,6-methano-3-benzazocine-8-carboxamide], 2.4 ± 0.45 nM.
Turning to `CC1[C@@H]2Cc3ccc(C(=O)NCCc4ccccc4Br)cc3[C@@]1(C)CCN2CC1CC1` (mixture of isomers) [Example 52, (±)-3-(Cyclopropylmethyl)-1,2,3,4,5,6-hexahydro-cis-6,11-dimethyl-N-(2-bromophenethyl)-2,6-methano-3-benzazocine-8-carboxamide], the Ki on human μ opioid receptor (read-out: [3H]DAMGO (μ)) was 4 ± 0.36 nM.
Take `CC1C2Cc3ccc(C(=O)NCCCCCc4ccccc4)cc3C1(C)CCN2CC1CC1` (racemic) [Example 61]: at human μ opioid receptor ([3H]DAMGO (μ)), the Ki came to 1.7 ± 0.15 nM.
Compound `CC1C2Cc3ccc(C(=O)NCCc4cccnc4)cc3C1(C)CCN2CC1CC1` (racemic) [Example 69] yielded a Ki on human μ opioid receptor ([3H]DAMGO (μ)) of 120 ± 3.6 nM.
Still for that read-out and setting: as for `CC(NC(=O)c1ccc2c(c1)C1(C)CCN(CC3CC3)C(C2)C1C)c1ccccc1` (single isomer, unassigned) [Example 67], the figure is 28 ± 1.4 nM.
Still for that read-out and setting: as for `CC(NC(=O)c1ccc2c(c1)C1(C)CCN(CC3CC3)C(C2)C1C)c1ccccc1` (single isomer, unassigned) [Example 68], the figure is 62 ± 3.3 nM; as for `O=C(NCCc1ccc(-c2ccccc2)cc1)c1ccc2c3c1OC1C(=O)CCC4(O)C(C2)N(CC2CC2)CCC314` (single isomer, unassigned; (-)) [Example 71, (−)-Q-naltrexone], 1.4 ± 0.12 nM.
Regarding `C[C@H]1C2Cc3ccc(C(N)=O)cc3[C@@]1(C)CCN2CC1CC1` [Example 8-CAC, 8-carboxamidocyclazocine], the “affinity for κ opioid receptors” value in the experiment with κ opioid receptors was “high affinity”. Moreover, the “affinity for μ opioid receptors” value with guinea pig μ receptors is given as “high affinity”. In the experiment on mice, the duration of action was 15 h. Besides, the “antinociception activity in vivo” value with mice (background) is on record as “high antinociception activity”.
`CC1C2C(=O)c3ccc(C(=O)NCCc4ccc(-c5ccccc5)cc4)cc3C1(C)CCN2CC1CC1` (stereo not drawn) [Example 20] had a Ki on human μ opioid receptor ([3H]DAMGO (μ)) of 3.1 ± 1.3 nM.
At human μ opioid receptor ([3H]DAMGO (μ)), `CC(CNC(=O)c1ccc2c(c1)[C@@]1(C)CCN(CC3CC3)C(C2)[C@@H]1C)c1ccc(-c2ccccc2)cc1` (stereo partly drawn) [Example 46] yielded a Ki of 18 ± 1.1 nM.
As for `COc1ccc(-c2ccc(CCNC(=O)c3ccc4c(c3)[C@@]3(C)CCN(CC5CC5)C(C4)[C@@H]3C)cc2)cc1` [Example 48], the Ki on human μ opioid receptor (read-out: [3H]DAMGO (μ)) amounted to 0.084 ± 0.012 nM.
Same read-out and setting: as for `C[C@H]1C2Cc3ccc(C(=O)NCCc4ccc(-c5ccc(Cl)cc5)cc4)cc3[C@@]1(C)CCN2CC1CC1` [Example 49], the figure is 0.2 ± 0.038 nM.
In the case of `C[C@H]1C2Cc3ccc(C(=O)NCCc4ccc(-c5cccc(Cl)c5)cc4)cc3[C@@]1(C)CCN2CC1CC1` [Example 50], the Ki at human μ opioid receptor ([3H]DAMGO (μ)) was determined as 0.56 ± 0.087 nM.
As for `Cc1ccc(-c2ccc(CCNC(=O)c3ccc4c(c3)[C@@]3(C)CCN(CC5CC5)C(C4)[C@@H]3C)cc2)cc1` [Example 51], the Ki on human μ opioid receptor (read-out: [3H]DAMGO (μ)) is 0.29 ± 0.075 nM.
`C[C@H]1C2Cc3ccc(C(=O)NCCc4ccc(C(=O)NCCc5ccc(Br)cc5)cc4)cc3[C@@]1(C)CCN2CC1CC1` [Example 53]: the Ki at human μ opioid receptor ([3H]DAMGO (μ)) came to 1.5 ± 0.18 nM.
With `C[C@H]1C2Cc3ccc(C(=O)NCCCCc4ccccc4)cc3[C@@]1(C)CCN2CC1CC1` [Example 60], at human μ opioid receptor ([3H]DAMGO (μ)), the Ki is 4.3 ± 0.42 nM.
Still for that read-out and setting: as for `O=C(NCCc1ccc(-c2ccccc2)cc1)c1ccc2c(c1)[C@@]13CCCC[C@@]1(O)[C@@H](C2)N(CC1CCC1)CC3` [Example 79, (−)-Q-butorphanol], the figure is 0.32 ± 0.048 nM.
The same measure, in the same setting: as for `O=C1CC[C@@]2(O)[C@H]3Cc4ccc(C(=O)NCCc5ccc(-c6ccccc6)cc5)c(O)c4[C@@]2(CCN3CC2CC2)C1` [Example 81, Q-naltrexone ring opened], the figure is 0.71 ± 0.091 nM.
Turning to `C[C@H]1[C@H]2Cc3ccc(O)cc3[C@]1(C)CCN2CC1CC1` [cyclazocine], the duration of action with mice is 2 h.
